According to patent US20230390251A1, “METHODS OF TREATING RIBONUCLEOTIDE REDUCTASE-RELATED DISEASES WITH A RIBONUCLEOTIDE REDUCTASE INHIBITOR” (TAIHO PHARMACEUTICAL CO., LTD., priority 2020, published 2023):

System: 11 sarcoma cell lines listed in Table 1
Assay: Cell proliferation assay (CellTiter-Glo) in 11 sarcoma cell lines, correlated with SLFN11 mRNA expression
Assay type: cell-based
Settings: 100 micro mol/L Compound A, 3 days of exposure, Pearson's correlation (P<0.05)
Protocol: Cell proliferation assay was performed in accordance with conventional methods, available in Hasako. S., et al. Mol Cancer Ther 17, 1648-1658 (2018). Briefly, cells were plated and incubated for 1 day, followed by 3 days of exposure to the compound. After exposure to Compound A, viable cells were detected by using the CellTiter-Glo luminescent cell viability assay (Promega). The experiment was performed in triplicates.
Correlation analysis of SLFN11 expression and Compound A cytotoxicity was performed using Pearson's correlation coefficient (P<0.05) in JMP 13 software. The gene expression data of cell lines were available online CCLE (http://www.broadinstitute.org/ccle/home). Compound A cytotoxicity data from 11 cell lines in Table 1 were used for correlation analysis (data for correlation was not shown).
The correlation between SLFN11 mRNA expression and the relative growth percent of cells at 100 micro mol/L treatment by Compound A was analyzed in 11 sarcoma cell lines listed in Table 1.

With Cc1ccc(F)c([C@@H](C)[C@H](NS(=O)(=O)c2ccc(Cl)cc2C(N)=O)c2n[nH]c(=O)o2)c1C [Compound A, 5-chloro-2-(N-((1S,2R)-2-(6-fluoro-2,3-dimethylphenyl)-1-(5-oxo-4,5-dihydro-1,3,4-oxadiazol-2-yl)propyl)sulfamoyl)benzamide] the “correlation between SLFN11 mRNA expression and relative cell growth (%)” value was “a significant correlation”.
